The record followed here is PubChem BioAssay AID179 (DTP/NCI, 2004).

Where “and” joins values, the source holds several entries; their conditions need not be identical. Equal entries are not always repeated. Calls of active or inactive are those of the source.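 How the source made its calls: active means compounds giving half or more protection of infected cells from virus-caused growth loss, again on retest; inactive means the rest.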

This test relates to CEM cells HIV-1 protection, formazan growth assay. Description: NCI AIDS Antiviral Assay. The conditions noted are these: for IC50: measured here: growth of uninfected CEM cells. Summed up: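 CEM (human) cells, HIV-1 infected vs uninfected, 5-point dosing, formazan growth read-out. Retest threshold 50% protection.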

On to `CCCCCCCCCCCCCCCc1cc(=O)c2c(O)cc(O)cc2o1`, for which the result was inactive. As to `COc1ccc(C2c3cc4c(cc3C(O)C3CCC(=O)N23)OCO4)cc1` (configuration not stated), the EC50 was more than 200 µM and the IC50 is more than 200 µM. `Cc1ccc(-c2n[nH]c(=O)n2N)cc1`: the EC50 was more than 200 µM and the concentration for half-maximal inhibition (IC50) is more than 200 µM. `Brc1ccccc1C=NC12CC3CC(CC(C3)C1)C2`: the EC50 is more than 22.9 µM and the IC50 was more than 22.9 µM. For the compound `Cc1c(COC(=O)NC(C)C)c(COC(=O)NC(C)C)c2n1CSC2`, the EC50 is more than 51.3 µM and the half-inhibitory concentration (IC50) was 2.4 µM. Regarding `O=C1Nc2ccccc2NC(=O)C1(O)O`, the EC50 was more than 200 µM and the IC50 is more than 200 µM. As to `CC(C)(C)[Si](C)(C)OCC1OC(n2ccc(=O)[nH]c2=O)C(O[Si](C)(C)C(C)(C)C)C12OC2C(=O)NO` (configuration not stated), the EC50 is more than 20 µM and the 50% inhibitory concentration (IC50) came to 1.45 µM. Regarding `CCOC(=O)[C@H]1C[C@@H](C(=O)c2ccccc2)N2N=C(c3ccc(Br)cc3)C=C[C@H]12`, the EC50 is more than 100 µM and the 50% inhibitory concentration (IC50) was more than 100 µM.

For the compound `O=c1[nH]c2c(c(=O)[nH]1)SC(c1ccccc1)C2` (configuration not stated), the EC50 is more than 200 µM and the IC50 is more than 200 µM. `O=C1C2N=NN(c3ccccc3)C2C(=O)N1c1ccccc1` (configuration not stated): the EC50 is 41.7 µM and the 50% inhibitory concentration (IC50) is more than 200 µM. For `[Se]c1nc2ccccc2o1`, the EC50 is more than 224 µM and the concentration for half-maximal inhibition (IC50) is 53.7 µM.

`C=C1CC(C)(COc2ccc3c(C)c(Cl)c(=O)oc3c2)OC1=O` (configuration not stated): the EC50 is more than 2 µM and the IC50 was 0.617 µM. With `C=C1C2CC3CCC2C(OC(=O)c2ccccc2C(=O)O)C13` (configuration not stated), the EC50 is more than 200 µM and the IC50 is more than 200 µM. Turning to `CC(=O)NNc1nc(C)c(C(/C=C/c2ccc([N+](=O)[O-])cc2)=N/NC(N)=O)s1`, the EC50 was more than 33.9 µM and the IC50 is more than 33.9 µM. As for `CCOC(=O)c1ccc(CSc2ccc(OC)cc2)cc1`, the EC50 is more than 33.1 µM and the 50% inhibitory concentration (IC50) came to 16.2 µM. With `C=CC(C)(C)c1cc(O)c2oc3c(O)cccc3c(=O)c2c1O`, the EC50 is more than 151 µM and the 50% inhibitory concentration (IC50) was found to be 37.2 µM. Turning to `COc1ccc(/C(C#N)=C/c2cc(OC)c(OC)c(OC)c2)cc1`, the EC50 was more than 200 µM and the concentration for half-maximal inhibition (IC50) was determined as 5.75 µM. For `c1c[nH]c(-c2ccc(-c3ccc[nH]3)c3nsnc23)c1`, in that order: more than 200 µM and more than 200 µM. On to `N#CC(c1ccccc1)N(CCOCCOCCN(C(=O)c1cccc2ccccc12)C(C#N)c1ccccc1)C(=O)c1cccc2ccccc12` (configuration not stated), for which the EC50 was more than 200 µM and the half-maximal inhibitory concentration (IC50) was 13.2 µM. With `CN(C)N1CCOC1=O`, the EC50 was more than 200 µM and the IC50 was more than 200 µM.

As for `Cc1cc(C)c(S(=O)(=O)N(CCCCCCN)OCCCN)c(C)c1`, the EC50 was more than 200 µM and the IC50 stood at 30.2 µM. For `O=C(CCCn1ccnc1[N+](=O)[O-])NCCn1ccnc1`, the outcome was inactive. As to `Cc1cc(-c2ccc(C(=O)C(c3ccccc3)(c3ccccc3)c3ccccc3)[nH]2)on1`, the EC50 was more than 200 µM and the IC50 is 18.6 µM. Regarding `COC(CC[P+](c1ccccc1)(c1ccccc1)c1ccccc1)(C(=O)c1ccccc1)c1ccccc1` (configuration not stated), the EC50 is more than 20 µM and the half-inhibitory concentration (IC50) was determined as 0.447 µM. Take `CC1=C(C(=O)Nc2ccccc2)C(c2ccc([N+](=O)[O-])cc2)C(C(=O)Nc2ccccc2)=C(C)N1`: the EC50 is more than 15.5 µM and the half-maximal inhibitory concentration (IC50) is more than 15.5 µM.

For the compound `CCCC1(N)CC(OC)OC(C)C1O` (configuration not stated), the EC50 was more than 200 µM and the 50% inhibitory concentration (IC50) was more than 200 µM. As for `CCOC(=O)c1c(-c2ccc(O)c(OC)c2)c(C#N)c(=S)n(C2OC(CO)C(O)C(O)C2O)c1-c1ccccc1` (configuration not stated), the EC50 is more than 200 µM; the half-inhibitory concentration (IC50) was > 200 µM and 117 µM. Turning to `CC(C)O[C@H]1N(C2CC(N=[N+]=[N-])C(CO)O2)C(=O)NC(=O)[C@]1(C)Cl` (some centres not stated), the EC50 was more than 200 µM and the IC50 is more than 200 µM. Take `C=CC1CC[N-]CC1.[Cl][Cu][Cl]`: the outcome was inactive. Consider `CCOC(=O)c1c(NC(=O)Nc2ccccc2)c(C(N)=O)c2n1CCCCC2`, for which the EC50 is more than 100 µM and the half-maximal inhibitory concentration (IC50) was more than 100 µM. On to `S=c1c2cn[nH]c2nc2scc(-c3ccc(Cl)cc3)n12`, for which the EC50 was more than 200 µM and the IC50 amounted to 13.2 µM. `COC(=O)C1=COC(C)C2Cn3ccc4c5ccccc5nc-4c3CC12` (configuration not stated): the EC50 was more than 129 µM and the half-maximal inhibitory concentration (IC50) came out at 75.9 µM. For `COc1cc2ccc(C(=O)NCCCNC(=O)c3ccc4cc(OC)c(OC)cc4c3)cc2cc1OC`, the concentration giving a half-maximal response (EC50) was 126 µM and the concentration for half-maximal inhibition (IC50) was more than 200 µM.

Regarding `CCc1nnc(CC)n1NCCCC(=O)O`, the EC50 was more than 200 µM and the half-maximal inhibitory concentration (IC50) is more than 200 µM. Regarding `NC(=S)N/N=C/C(O[C@@H](/C=N/NC(N)=S)CO)n1cnc2c(N)ncnc21` (some centres not stated), the EC50 is more than 437 µM and the IC50 amounted to 89.1 µM. Consider `COc1ccc(-c2c(C3=NCCN3)nnn2-c2ccccc2)cc1`, for which the EC50 is more than 295 µM and the half-maximal inhibitory concentration (IC50) was more than 295 µM. Regarding `N#Cc1c[nH]n2ccnc12`, the EC50 is more than 200 µM and the IC50 was more than 200 µM. As to `Cc1oc2cc(O)cc(O)c2c(=O)c1C`, the EC50 is more than 200 µM and the IC50 is 155 µM. Take `OC(C/C=N/Nc1ccccc1)(C(F)(F)Cl)C(F)(F)Cl`: the EC50 is more than 200 µM and the concentration for half-maximal inhibition (IC50) was 10 µM. With `Cc1cc2c(c(C(=O)NCC(=O)N[C@@H](C)C(=O)OCc3ccccc3)c1)Oc1c(cc(C)cc1C(=O)NCC(=O)N[C@@H](C)C(=O)OCc1ccccc1)S2`, the EC50 is more than 200 µM and the half-inhibitory concentration (IC50) came to 7.76 µM. For `O=c1c2cc([N+](=O)[O-])cnc2sn1-c1ccc([N+](=O)[O-])cc1`, in that order: more than 200 µM and 63.1 µM. With `O=C1OCC/C1=C\c1ccc(O)cc1`, the EC50 was more than 1320 µM and the IC50 came to 240 µM.

Take `O=C(Sc1ccccc1)n1nc(Cl)c2ccc([N+](=O)[O-])cc21`: the EC50 is more than 200 µM and the concentration for half-maximal inhibition (IC50) worked out at 43.7 µM. For `O=C(O)C(=Cc1ccc(-c2ccccc2)cc1)C(=O)O`, in that order: more than 251 µM and 15.5 µM.

`O=[N+]([O-])c1c(C=Nc2ccccc2)oc(-c2c(O)ccc3ccccc23)c1-c1c(O)ccc2ccccc12`: the EC50 was more than 200 µM and the IC50 came to 31.6 µM. Regarding `c1ccc(-c2cn3nc4ccccc4c3nn2)cc1`, the EC50 was more than 200 µM and the IC50 was more than 200 µM.

Take `O=c1[nH]c2cc(Cl)ccc2nc1/C(=N\O)C(O)c1ccc(Cl)cc1Cl` (configuration not stated): the EC50 was more than 74.1 µM and the IC50 was more than 74.1 µM.

As for `CCNc1c(C(=O)N(CC)CC)c(=O)[nH]c2ncccc12`, the EC50 was more than 871 µM and the 50% inhibitory concentration (IC50) was more than 871 µM. Regarding `CCOP(=O)(OCC)/C(C#N)=C/c1cccc(F)c1`, the EC50 was more than 331 µM and the 50% inhibitory concentration (IC50) is more than 331 µM.

`Cc1ncc([N+](=O)[O-])n1CC(O)Cn1cnc([N+](=O)[O-])n1` (configuration not stated): the EC50 was more than 200 µM and the IC50 was more than 200 µM.

Take `CC1(C)OC2C=C(COCc3ccccc3)C[C@H]3[C@@H]2C(O1)[C@@H]1OC[C@H]3O1` (some centres not stated): the result was inactive.

Regarding `CC(C)(C)C1CCC2(CC1)CCN(N1CCCCCC1)CC2`, the EC50 is more than 100 µM and the IC50 was 91.2 µM. On to `COc1cc2c(cc1OC)/C(=C\c1ccccc1N)C(=O)OC2`, for which the outcome was inactive. As for `CC1(C)C(=O)N2C(=O)CC(=O)N2C1=O`, the EC50 is more than 457 µM and the concentration for half-maximal inhibition (IC50) was more than 457 µM. Take `COc1cc(C(=O)O)c2c(c1C)OC(=O)c1c(C)cc(O)c(C=O)c1O2`: the EC50 is more than 83.2 µM and the IC50 was 36.3 µM. For `Nc1nc(C(=O)O)c(N)c(=O)[nH]1`, in that order: more than 200 µM and more than 200 µM. `N/N=C(/Cc1ccccc1)NNO`: the EC50 is more than 525 µM and the IC50 worked out at 174 µM.

For `Nc1ccccc1C(=O)CCc1ccccc1C(=O)O`, the outcome was inactive. Take `CC1C2=CC=C(O2)C(C)(C)C2=CC=C(O2)C(C)(C)C2=CC=C(O2)C(C)(C)C2=CC=C1O2`: the outcome was inactive. Turning to `CCOC(=O)CC(=O)ON(C)C(C)=O`, the EC50 was more than 251 µM and the half-inhibitory concentration (IC50) was more than 251 µM. Turning to `O=c1/c(=C/c2ccc3c(c2)OCO3)sc2nnc(-c3ccco3)n12`, the EC50 is more than 55 µM and the IC50 was more than 55 µM. Regarding `CC[P+](C)(Cc1ccccc1)c1ccccc1` (configuration not stated), the EC50 is 0.0631 µM and the IC50 stood at 81.3 µM. Turning to `COC(=O)C(=O)c1cc2ccccc2n1S(=O)(=O)c1ccccc1`, the EC50 is more than 200 µM and the IC50 is more than 200 µM. In the case of `O=C1c2c(ccc3c2CCC3)CC12Cc1ccccc1C2`, the EC50 was more than 200 µM and the 50% inhibitory concentration (IC50) was more than 200 µM. With `CCOC(=O)/C=C/c1ccccn1`, the EC50 is more than 1410 µM and the IC50 stood at 646 µM. In the case of `Cc1cc(N(CCC#N)CCC#N)ccc1/C=C1/N=C(c2ccccc2)N(N)C1=O`, the EC50 was more than 63.1 µM and the IC50 stood at 42.7 µM. For `CCOC(=O)C(=Cc1ccccc1F)C(=O)OCC`, the EC50 was more than 135 µM and the concentration for half-maximal inhibition (IC50) worked out at 25.7 µM.

`CC(C)=CCS(=O)c1ccccc1NC1=CC(=O)CC(C)(C)C1` (configuration not stated): the outcome was inactive. On to `OC(C1CO1)C(O)C1CO1` (configuration not stated), for which the EC50 is more than 427 µM and the IC50 stood at 0.891 µM. As to `Cn1nc2c(c(Cl)c1=O)Nc1ccccc1O2`, the EC50 was more than 200 µM and the IC50 is more than 200 µM. With `COc1ccccc1OCC(O)CO` (configuration not stated), the result was inactive. In the case of `NC(CSS(=O)(=O)O)=NCCCCN=C(N)CSS(=O)(=O)O`, the EC50 is more than 200 µM and the IC50 is more than 200 µM. `CCOC(=O)C1=NN(c2ccc(Cl)cc2)C2=CC(C)=NN(C)C(=S)N21`: the EC50 was more than 200 µM and the IC50 was more than 200 µM. Take `CN1CCCC1c1cccnc1` (configuration not stated): the EC50 was 77.6 µM and the concentration for half-maximal inhibition (IC50) is more than 200 µM. As to `O=C1CCC(=O)c2ccccc2N1`, the EC50 is more than 1020 µM and the IC50 was more than 1020 µM. In the case of `Cc1cc2c(cc1Cl)SC(NNc1ccc([N+](=O)[O-])cc1)=NS2(=O)=O`, the result was inactive.
